Results: ChEMBL document CHEMBL1129990, “Effect of N9-methylation and bridge atom variation on the activity of 5-substituted 2,4-diaminopyrrolo[2,3-d]pyrimidines against dihydrofolate reductases from Pneumocystis carinii and Toxoplasma gondii” (J Med Chem, 1997)
pIC50: −log10 of the molar value.

What was measured:
[1] = target: T1, Bifunctional dihydrofolate reductase-thymidylate synthase (Toxoplasma gondii, UniProt Q07422)
T1 sequence (Q07422 whole entry): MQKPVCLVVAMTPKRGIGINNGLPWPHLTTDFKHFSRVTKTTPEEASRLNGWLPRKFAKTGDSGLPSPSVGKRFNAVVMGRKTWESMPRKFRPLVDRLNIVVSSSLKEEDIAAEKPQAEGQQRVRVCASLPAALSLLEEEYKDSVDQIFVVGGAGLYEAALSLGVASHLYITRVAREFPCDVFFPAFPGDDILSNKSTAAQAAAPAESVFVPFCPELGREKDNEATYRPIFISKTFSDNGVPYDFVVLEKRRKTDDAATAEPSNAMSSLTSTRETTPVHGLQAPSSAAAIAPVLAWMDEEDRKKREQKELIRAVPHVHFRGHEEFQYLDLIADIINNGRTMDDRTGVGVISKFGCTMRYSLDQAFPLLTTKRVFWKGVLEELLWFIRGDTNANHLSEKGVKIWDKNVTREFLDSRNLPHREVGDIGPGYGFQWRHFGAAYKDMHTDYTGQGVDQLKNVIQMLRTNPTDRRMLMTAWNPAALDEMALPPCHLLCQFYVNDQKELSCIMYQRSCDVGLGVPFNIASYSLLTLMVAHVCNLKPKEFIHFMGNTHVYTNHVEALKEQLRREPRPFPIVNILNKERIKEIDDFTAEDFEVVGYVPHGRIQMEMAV
Description: Inhibition against Dihydrofolate reductase in Toxoplasma gondii

Dihydrofolate reductase [2] = target: T2, Dihydrofolate reductase (Pneumocystis carinii, UniProt P16184)
T2 sequence (P16184 whole entry): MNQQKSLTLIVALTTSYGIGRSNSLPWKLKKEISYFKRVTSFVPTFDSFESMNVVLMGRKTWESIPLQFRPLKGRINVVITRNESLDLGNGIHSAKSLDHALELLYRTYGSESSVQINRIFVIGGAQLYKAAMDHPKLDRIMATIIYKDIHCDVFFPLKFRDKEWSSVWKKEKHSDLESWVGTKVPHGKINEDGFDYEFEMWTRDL
Description: Inhibition against Dihydrofolate reductase in Pneumocystis carinii

Dihydrofolate reductase [3] = target: T3, Dihydrofolate reductase (Rattus norvegicus, UniProt Q920D2)
T3 sequence (Q920D2 whole entry): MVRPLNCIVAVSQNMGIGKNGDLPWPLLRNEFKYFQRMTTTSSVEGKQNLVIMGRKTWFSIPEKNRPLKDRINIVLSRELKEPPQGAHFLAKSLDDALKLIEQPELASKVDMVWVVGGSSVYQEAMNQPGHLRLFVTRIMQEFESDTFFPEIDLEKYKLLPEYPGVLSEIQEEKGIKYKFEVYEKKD
Description: Inhibition against Dihydrofolate reductase in rat liver

Compound `Nc1nc(N)c2c(CSc3ccc(Cl)c(Cl)c3)c[nH]c2n1` has a pIC50 [1] of 4.94, a pIC50 (Dihydrofolate reductase [2]) of 4.23 and a pIC50 (Dihydrofolate reductase [3]) of 5.28.
`COc1ccc(SCc2c[nH]c3nc(N)nc(N)c23)cc1OC` was tested, and the pIC50 [1] was 5.59, the pIC50 (Dihydrofolate reductase [2]) was 4.95 and the pIC50 (Dihydrofolate reductase [3]) was 4.78.
`COc1ccc(OC)c(N(C)Cc2c[nH]c3nc(N)nc(N)c23)c1` was tested, and the pIC50 [1] was 5.47, the pIC50 (Dihydrofolate reductase [2]) was less than 4.92 and the pIC50 (Dihydrofolate reductase [3]) was less than 4.92.
`CN(Cc1c[nH]c2nc(N)nc(N)c12)c1ccc(Cl)c(Cl)c1` showed a pIC50 [1] of 6.00, a pIC50 (Dihydrofolate reductase [2]) of 4.55 and a pIC50 (Dihydrofolate reductase [3]) of 5.52.
For `CN(Cc1c[nH]c2nc(N)nc(N)c12)c1cccc2ccccc12`, the pIC50 [1] was 6.06, the pIC50 (Dihydrofolate reductase [2]) was 3.68 and the pIC50 (Dihydrofolate reductase [3]) was 5.09.
`CN(Cc1c[nH]c2nc(N)nc(N)c12)c1ccc(C(=O)N(C)C(CCC(=O)O)C(=O)O)cc1` (centres undefined) gave a pIC50 [1] of 6.82, a pIC50 (Dihydrofolate reductase [2]) of 7.36 and a pIC50 (Dihydrofolate reductase [3]) of 7.22.
`Nc1nc(N)c2c(CSc3cccc4ccccc34)c[nH]c2n1` showed a pIC50 [1] of 6.09, a pIC50 (Dihydrofolate reductase [2]) of 4.97 and a pIC50 (Dihydrofolate reductase [3]) of 5.52.
With `Nc1nc(N)c2c(CSc3ccc4ccccc4c3)c[nH]c2n1` the pIC50 [1] was 5.04, the pIC50 (Dihydrofolate reductase [2]) was 3.03 and the pIC50 (Dihydrofolate reductase [3]) was 4.08.
